Data as given in patent US12351556B2, “Pyridin-2(1H)one derivatives, their preparation and their use for the treatment of pain” (INSTITUT NATIONAL DE LA SANTE ET DE LA RECHERCHE MEDICALE …, priority 2019, dated 2025).

Tests used:
Test in all cases: ICKP protein kinase panel screening
Type in all cases: biochemical
Conditions in all cases: duplicate assays, read-out: mean % residual activity
[1] = target: p38a MAPK (Homo sapiens (Human), UniProt Q16539)
Description: (§1) FIG. 3 illustrates the human kinome. Compound 69 was evaluated at the International Center For Kinase Profiling (ICKP, Dundee, Scotland) toward a panel of 50 protein kinases that provide a representative sampling of the human kinome. The results were expressed as the mean percentage of residual activity at 10 μM concentration (duplicate assays). Small disks: ≥65%, larger disk: 19%. The black square indicates the kinome region containing protein kinases evaluated in a second screening (FIG. 4, Table 4). The tree was generated using the Kinome Render software, and the illustration reproduced courtesy of Cell Signaling Technology, Inc. (www.cellsignal.com) Chartier et al PeerJ 2013, 1:e126.
(§2) FIG. 4 illustrates the studies carried out for compounds 67 and 69. Compounds 67 and 69 (FIG. 4B) were evaluated at the International Center For Kinase Profiling (ICKP, Dundee, Scotland) toward a panel of 13 protein kinases. The results (FIG. 4A) were expressed as the mean percentage of residual activity at 1 μM concentration (duplicate assays). Small disks: ≥90%, larger disk: 59%, for both compounds. The tree was generated using the Kinome Render software, and the illustration reproduced courtesy of Cell Signaling Technology, Inc. (www.cellsignal.com) Chartier et al PeerJ 2013, 1:e126.
(§3) Results are expressed as the mean percentage of residual activity at 10 μM (Table 3) or 1 μM (Table 4). They are illustrated on FIGS. 3 and 4.
(§4) Studies were undertaken to identify the possible biological target(s) of compound 69. The activation in neurons of PK such as PKCγ, ERK or p38 MAPK can contribute to pain hypersensitivity. Therefore, it was decided to screen compound 69 toward a panel of 50 PKs that provide a representative sampling of the human kinome (FIG. 3, Table 3) (Biochem. J. 2007, 408, 297-315). In this panel, p38α MAPK was identified as the privileged target, with 19% of kinase residual activity at 10 μM compound concentration.
(§5) The selectivity of compound 69 was evaluated at 1 μM toward another panel containing all four p38 MAPK isoforms, ERK1, ERK2 as well as other protein kinases close to p38α MAPK in the kinome phylogenetic tree (FIG. 4, Table 4). […] Its IC50 toward p38α MAPK was determined, showing a value in the micromolar range (IC50=3.0±0.1 μM).

[2] = target: JNK1 (Homo sapiens (Human), UniProt P45983)
JNK1, sequence (P45983 whole entry): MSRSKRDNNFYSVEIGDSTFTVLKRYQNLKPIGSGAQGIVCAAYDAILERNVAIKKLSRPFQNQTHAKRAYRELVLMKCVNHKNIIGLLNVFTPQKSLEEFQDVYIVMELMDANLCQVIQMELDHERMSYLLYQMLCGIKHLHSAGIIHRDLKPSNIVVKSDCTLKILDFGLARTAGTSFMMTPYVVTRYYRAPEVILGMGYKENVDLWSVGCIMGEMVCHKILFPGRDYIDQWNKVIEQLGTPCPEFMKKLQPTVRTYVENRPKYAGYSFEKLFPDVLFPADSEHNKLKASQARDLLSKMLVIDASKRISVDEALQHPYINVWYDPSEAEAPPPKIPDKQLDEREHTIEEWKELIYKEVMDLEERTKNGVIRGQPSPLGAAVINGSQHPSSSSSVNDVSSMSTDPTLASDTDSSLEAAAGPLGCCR
Description: as §1, §2, §3, §4, §5

[3] = target: RIPK2 (Homo sapiens (Human), UniProt O43353)
Description: as §1, §3, §4

[4] = target: TBK1 (Homo sapiens (Human), UniProt Q9UHD2)
Description: as §1, §3, §4

[5] = target: IGF-1R (Homo sapiens (Human), UniProt P08069)
Description: as §1, §3, §4

[6] = target: S6K1 (Homo sapiens (Human), UniProt P23443)
Description: as §1, §3, §4

[7] = target: PKD1 (Homo sapiens (Human), UniProt Q15139)
Description: as §1, §3, §4

[8] = target: Src (Homo sapiens (Human), UniProt P12931)
Description: as §1, §3, §4

[9] = target: HER4 (Homo sapiens (Human), UniProt Q15303)
HER4, sequence (Q15303 26-1308): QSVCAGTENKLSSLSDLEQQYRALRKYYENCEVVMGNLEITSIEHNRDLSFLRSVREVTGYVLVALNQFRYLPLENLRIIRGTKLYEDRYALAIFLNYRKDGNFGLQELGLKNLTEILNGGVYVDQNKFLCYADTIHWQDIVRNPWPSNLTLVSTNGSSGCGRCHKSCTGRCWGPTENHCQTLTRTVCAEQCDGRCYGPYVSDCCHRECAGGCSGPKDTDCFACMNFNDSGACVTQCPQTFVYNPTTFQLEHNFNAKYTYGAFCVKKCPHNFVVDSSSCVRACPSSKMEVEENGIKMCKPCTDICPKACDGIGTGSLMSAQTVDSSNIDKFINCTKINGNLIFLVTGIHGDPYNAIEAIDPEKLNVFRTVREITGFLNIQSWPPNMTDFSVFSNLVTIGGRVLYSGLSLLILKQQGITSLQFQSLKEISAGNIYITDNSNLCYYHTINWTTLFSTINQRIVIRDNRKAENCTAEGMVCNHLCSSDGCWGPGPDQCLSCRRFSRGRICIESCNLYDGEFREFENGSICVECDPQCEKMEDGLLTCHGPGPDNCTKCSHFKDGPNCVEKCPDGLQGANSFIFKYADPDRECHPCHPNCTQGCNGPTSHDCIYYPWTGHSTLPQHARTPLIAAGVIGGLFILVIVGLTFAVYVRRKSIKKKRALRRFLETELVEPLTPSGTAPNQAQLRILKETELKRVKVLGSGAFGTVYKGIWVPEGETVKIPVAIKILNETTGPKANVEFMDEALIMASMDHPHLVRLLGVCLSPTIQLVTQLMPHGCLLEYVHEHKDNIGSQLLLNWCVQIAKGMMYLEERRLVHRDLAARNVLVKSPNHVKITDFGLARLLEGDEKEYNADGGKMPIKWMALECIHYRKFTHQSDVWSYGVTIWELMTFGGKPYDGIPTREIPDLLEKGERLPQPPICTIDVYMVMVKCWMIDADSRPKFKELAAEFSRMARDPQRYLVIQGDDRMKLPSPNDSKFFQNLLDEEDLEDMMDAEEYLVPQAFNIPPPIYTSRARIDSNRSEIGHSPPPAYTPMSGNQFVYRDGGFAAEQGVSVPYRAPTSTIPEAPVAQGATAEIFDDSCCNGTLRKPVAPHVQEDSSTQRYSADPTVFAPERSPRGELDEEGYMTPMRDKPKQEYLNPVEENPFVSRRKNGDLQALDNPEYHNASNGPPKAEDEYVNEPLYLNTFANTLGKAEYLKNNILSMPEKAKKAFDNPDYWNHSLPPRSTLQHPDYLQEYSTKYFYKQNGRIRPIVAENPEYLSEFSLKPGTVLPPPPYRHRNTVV
Description: as §1, §3, §4

[10] = target: NEK6 (Homo sapiens (Human), UniProt Q9HC98)
Description: as §1, §3, §4

[11] = target: PRK2 (Homo sapiens (Human), UniProt Q16513)
Description: as §1, §3, §4

[12] = target: PKA (Homo sapiens (Human), UniProt P17612)
Description: as §1, §3, §4

[13] = target: JAK3 (Homo sapiens (Human), UniProt P52333)
Description: as §1, §3, §4

[14] = target: Lck (Homo sapiens (Human), UniProt P06239)
Description: as §1, §3, §4

[15] = target: MKK1 (Homo sapiens (Human), UniProt Q02750)
Description: as §1, §3, §4

[16] = target: IRAK4 (Homo sapiens (Human), UniProt Q9NWZ3)
Description: as §1, §3, §4

[17] = target: SRPK1 (Homo sapiens (Human), UniProt Q96SB4)
SRPK1, sequence (Q96SB4 whole entry): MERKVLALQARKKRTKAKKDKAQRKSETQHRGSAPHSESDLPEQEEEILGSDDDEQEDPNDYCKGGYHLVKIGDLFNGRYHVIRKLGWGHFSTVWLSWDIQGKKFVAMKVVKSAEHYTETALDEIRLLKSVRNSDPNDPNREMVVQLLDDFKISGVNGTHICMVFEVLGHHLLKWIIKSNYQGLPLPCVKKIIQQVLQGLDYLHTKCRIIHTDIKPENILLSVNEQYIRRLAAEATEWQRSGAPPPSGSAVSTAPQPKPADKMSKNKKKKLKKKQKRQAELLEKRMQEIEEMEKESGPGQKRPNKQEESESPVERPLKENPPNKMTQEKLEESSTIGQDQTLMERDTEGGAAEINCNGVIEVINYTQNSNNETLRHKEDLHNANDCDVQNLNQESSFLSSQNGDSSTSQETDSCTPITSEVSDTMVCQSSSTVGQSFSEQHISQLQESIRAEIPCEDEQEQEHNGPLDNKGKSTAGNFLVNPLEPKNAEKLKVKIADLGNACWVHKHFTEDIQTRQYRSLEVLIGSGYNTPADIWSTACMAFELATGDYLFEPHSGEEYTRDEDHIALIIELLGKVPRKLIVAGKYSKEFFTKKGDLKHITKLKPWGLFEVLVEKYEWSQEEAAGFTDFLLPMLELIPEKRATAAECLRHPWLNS
Description: as §1, §3, §4

[18] = target: PKCa (Homo sapiens (Human), UniProt P17252)
Description: as §1, §3, §4

[19] = target: MARK3 (Homo sapiens (Human), UniProt P27448)
Description: as §1, §3, §4

[20] = target: RSK1 (Homo sapiens (Human), UniProt Q15418)
Description: as §1, §3, §4

[21] = target: CHK2 (Homo sapiens (Human), UniProt O96017)
Description: as §1, §3, §4

[22] = target: CAMKKb (Homo sapiens (Human), UniProt Q96RR4)
Description: as §1, §3, §4

[23] = target: PAK4 (Homo sapiens (Human), UniProt O96013)
PAK4, sequence (O96013 whole entry): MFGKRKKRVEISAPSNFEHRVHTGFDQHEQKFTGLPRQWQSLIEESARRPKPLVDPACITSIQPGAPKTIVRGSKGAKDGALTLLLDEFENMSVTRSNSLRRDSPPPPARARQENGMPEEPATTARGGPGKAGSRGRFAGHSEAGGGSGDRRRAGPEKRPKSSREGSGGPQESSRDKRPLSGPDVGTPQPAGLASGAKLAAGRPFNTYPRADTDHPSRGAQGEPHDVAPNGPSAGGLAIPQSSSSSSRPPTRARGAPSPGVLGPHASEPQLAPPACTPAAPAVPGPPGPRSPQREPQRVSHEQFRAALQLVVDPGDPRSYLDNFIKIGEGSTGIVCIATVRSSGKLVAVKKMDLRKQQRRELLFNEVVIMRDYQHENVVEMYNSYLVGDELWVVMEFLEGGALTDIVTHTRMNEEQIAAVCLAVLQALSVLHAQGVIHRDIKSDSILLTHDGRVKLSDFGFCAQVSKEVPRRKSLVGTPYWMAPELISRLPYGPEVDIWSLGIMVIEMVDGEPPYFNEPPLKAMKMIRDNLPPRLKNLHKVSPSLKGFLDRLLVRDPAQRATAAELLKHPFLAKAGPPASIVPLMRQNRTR
Description: as §1, §3, §4

[24] = target: PLK1 (Homo sapiens (Human), UniProt P53350)
PLK1, sequence (P53350 whole entry): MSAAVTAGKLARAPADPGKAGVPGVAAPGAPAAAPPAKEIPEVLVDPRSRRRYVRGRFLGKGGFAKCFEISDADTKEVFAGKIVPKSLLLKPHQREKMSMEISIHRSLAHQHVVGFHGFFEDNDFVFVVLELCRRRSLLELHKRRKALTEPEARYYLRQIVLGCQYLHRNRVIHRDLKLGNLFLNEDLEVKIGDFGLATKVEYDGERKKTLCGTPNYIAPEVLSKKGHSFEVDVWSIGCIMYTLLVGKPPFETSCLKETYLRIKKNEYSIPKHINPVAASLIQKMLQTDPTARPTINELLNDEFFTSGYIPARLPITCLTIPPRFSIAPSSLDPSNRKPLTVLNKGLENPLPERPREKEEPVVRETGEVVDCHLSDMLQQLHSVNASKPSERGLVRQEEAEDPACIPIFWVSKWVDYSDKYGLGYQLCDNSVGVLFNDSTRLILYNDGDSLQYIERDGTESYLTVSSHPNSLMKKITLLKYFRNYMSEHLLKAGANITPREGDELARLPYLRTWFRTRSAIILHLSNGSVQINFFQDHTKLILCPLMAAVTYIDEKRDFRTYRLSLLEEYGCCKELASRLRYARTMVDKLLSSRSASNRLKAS
Description: as §1, §3, §4

[25] = target: MLK3 (Homo sapiens (Human), UniProt Q16584)
Description: as §1, §3, §4

[26] = target: EPH-A2 (Homo sapiens (Human), UniProt P29317)
EPH-A2, sequence (P29317 24-976): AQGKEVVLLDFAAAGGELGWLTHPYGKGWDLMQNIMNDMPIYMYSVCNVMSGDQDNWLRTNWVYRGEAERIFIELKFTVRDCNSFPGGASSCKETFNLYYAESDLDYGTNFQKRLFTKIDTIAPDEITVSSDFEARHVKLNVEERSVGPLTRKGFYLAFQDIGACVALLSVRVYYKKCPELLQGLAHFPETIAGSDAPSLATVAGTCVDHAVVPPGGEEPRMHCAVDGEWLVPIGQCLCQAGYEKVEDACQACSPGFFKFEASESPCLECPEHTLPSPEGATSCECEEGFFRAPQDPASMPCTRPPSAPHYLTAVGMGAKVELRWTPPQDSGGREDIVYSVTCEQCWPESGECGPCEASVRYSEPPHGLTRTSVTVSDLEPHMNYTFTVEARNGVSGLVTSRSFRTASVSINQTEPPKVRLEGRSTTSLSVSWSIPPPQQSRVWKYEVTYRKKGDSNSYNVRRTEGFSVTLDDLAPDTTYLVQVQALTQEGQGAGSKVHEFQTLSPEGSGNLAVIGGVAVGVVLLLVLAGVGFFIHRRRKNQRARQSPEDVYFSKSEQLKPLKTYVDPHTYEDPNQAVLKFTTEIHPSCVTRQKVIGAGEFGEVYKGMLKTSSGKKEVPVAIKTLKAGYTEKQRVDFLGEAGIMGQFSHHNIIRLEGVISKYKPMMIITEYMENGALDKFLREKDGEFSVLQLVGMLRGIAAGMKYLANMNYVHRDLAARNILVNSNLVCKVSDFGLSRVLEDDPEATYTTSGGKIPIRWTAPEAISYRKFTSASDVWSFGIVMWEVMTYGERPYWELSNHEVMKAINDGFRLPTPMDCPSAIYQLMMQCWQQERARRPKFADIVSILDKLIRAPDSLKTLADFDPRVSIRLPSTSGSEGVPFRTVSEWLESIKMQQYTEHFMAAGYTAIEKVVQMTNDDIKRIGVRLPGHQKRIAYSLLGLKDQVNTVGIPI
Description: as §1, §3, §4

[27] = target: SmMLCK (Homo sapiens (Human), UniProt Q15746)
Description: as §1, §3, §4

[28] = target: MSK1 (Homo sapiens (Human), UniProt O75582)
Description: as §1, §3, §4

p38a MAPK, sequence (Q16539 whole entry): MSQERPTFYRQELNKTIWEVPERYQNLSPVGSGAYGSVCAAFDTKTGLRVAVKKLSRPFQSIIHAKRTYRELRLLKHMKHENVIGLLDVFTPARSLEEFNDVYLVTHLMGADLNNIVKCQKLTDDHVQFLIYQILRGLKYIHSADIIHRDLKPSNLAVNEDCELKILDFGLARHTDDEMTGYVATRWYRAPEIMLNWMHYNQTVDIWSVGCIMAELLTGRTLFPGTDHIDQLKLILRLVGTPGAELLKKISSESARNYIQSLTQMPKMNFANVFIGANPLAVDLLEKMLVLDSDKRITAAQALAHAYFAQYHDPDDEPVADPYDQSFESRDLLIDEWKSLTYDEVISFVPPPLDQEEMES

Which results are given for `O=c1[nH]cc(Nc2ccccc2)cc1-c1ccccc1Br` [Compound 69, 3-(2-Bromophenyl)-5-(phenylamino)pyridin-2(1H)-one]?
remaining activity at 1 µM ([1]; 1 μM): 59%; remaining activity at 10 µM ([1]; 10 μM): 19%; remaining activity at 1 µM ([2]; 1 μM): 115%; remaining activity at 10 µM ([2]; 10 μM): 102%; remaining activity at 10 µM [3]: 90%; remaining activity at 10 µM [4]: 89%; remaining activity at 10 µM [5]: 96%; remaining activity at 10 µM [6]: 87%; remaining activity at 10 µM [7]: 92%; remaining activity at 10 µM [8]: 93%; remaining activity at 10 µM [9]: 98%; remaining activity at 10 µM [10]: 102%; remaining activity at 10 µM [11]: 90%; remaining activity at 10 µM [12]: 94%; remaining activity at 10 µM [13]: 107%; remaining activity at 10 µM [14]: 108%; remaining activity at 10 µM [15]: 112%; remaining activity at 10 µM [16]: 98%; remaining activity at 10 µM [17]: 81%; remaining activity at 10 µM [18]: 116%; remaining activity at 10 µM [19]: 102%; remaining activity at 10 µM [20]: 94%; remaining activity at 10 µM [21]: 101%; remaining activity at 10 µM [22]: 95%; remaining activity at 10 µM [23]: 89%; remaining activity at 10 µM [24]: 113%; remaining activity at 10 µM [25]: 109%; remaining activity at 10 µM [26]: 109%; remaining activity at 10 µM [27]: 100%; remaining activity at 10 µM [28]: 100%
